Values joined by “and” are separate entries in the source; they are usually repeats but may differ in a detail not shown here. Equal entries are not always repeated. Toxic doses and inconclusive results are not listed. No stated cut-off is given here; in the data, active means T/C of 150% or more; inactive means T/C below 125%.
Test system: L1210 leukemia ip in BDF1 mice, survival T/C
Test: NCI In Vivo Anticancer Drug Screen. Data for tumor model L1210 Leukemia (intraperitoneal) in B6D2F1 (BDF1) mice
Details: endpoint: mean survival time, higher = longer survival
Procedure, shortened: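 Mice bearing the transplanted tumor received compound or vehicle. Survival of the treated group was divided by that of the vehicle-treated control group to give the ratio.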

[1] = dose: 100.0 mg/kg/injection, schedule: Q04DX002 (ip), vehicle: Klucel (hydroxypropylcellulose) (HPC)
[2] = dose: 200.0 mg/kg/injection, schedule: Q04DX002 (ip), vehicle: Klucel (hydroxypropylcellulose) (HPC)
[3] = dose: 100.0 mg/kg/injection, schedule: Q04DX003 (ip), vehicle: saline
[4] = dose: 200.0 mg/kg/injection, schedule: Q04DX003 (ip), vehicle: saline
[5] = dose: 400.0 mg/kg/injection, schedule: Q04DX003 (ip), vehicle: saline
[6] = dose: 100.0 mg/kg/injection, schedule: Q01DX009 (ip), vehicle: Klucel (hydroxypropylcellulose) (HPC)
[7] = dose: 200.0 mg/kg/injection, schedule: Q01DX009 (ip), vehicle: Klucel (hydroxypropylcellulose) (HPC)
[8] = dose: 400.0 mg/kg/injection, schedule: Q01DX009 (ip), vehicle: Klucel (hydroxypropylcellulose) (HPC)
[9] = dose: 25.0 mg/kg/injection, schedule: Q01DX009 (ip), vehicle: saline with Tween-80
[10] = dose: 50.0 mg/kg/injection, schedule: Q01DX009 (ip), vehicle: saline with Tween-80
[11] = dose: 400.0 mg/kg/injection, schedule: Q04DX002 (ip), vehicle: Klucel (hydroxypropylcellulose) (HPC)
[12] = dose: 100.0 mg/kg/injection, schedule: Q01DX009 (ip), vehicle: saline with Tween-80
[13] = dose: 100.0 mg/kg/injection, schedule: Q04DX003 (ip), vehicle: saline with Tween-80
[14] = dose: 200.0 mg/kg/injection, schedule: Q01DX009 (ip), vehicle: saline with Tween-80
[15] = dose: 200.0 mg/kg/injection, schedule: Q04DX003 (ip), vehicle: saline with Tween-80
[16] = dose: 400.0 mg/kg/injection, schedule: Q04DX003 (ip), vehicle: saline with Tween-80
[17] = dose: 100.0 mg/kg/injection, schedule: Q01DX001 (ip), vehicle: saline
[18] = dose: 200.0 mg/kg/injection, schedule: Q01DX001 (ip), vehicle: saline
[19] = dose: 400.0 mg/kg/injection, schedule: Q01DX001 (ip), vehicle: saline

Measured: T/C

CSC(=S)NN
inactive: dose: 2.0 mg/kg/injection, schedule: Q04DX002 (ip), vehicle: saline 113 % of control | dose: 4.0 mg/kg/injection, schedule: Q04DX002 (ip), vehicle: saline 110 % of control | dose: 8.0 mg/kg/injection, schedule: Q04DX002 (ip), vehicle: saline 94 % of control and 108 % of control

NC(=O)N(CCCO)/N=C\c1ccc([N+](=O)[O-])o1
inactive: [1] 100 % of control | [2] 96 % of control

CCCCSc1nc(NC(C)C)nc(NC(C)C)n1
inactive: dose: 100.0 mg/kg/injection, schedule: Q04DX002 (sc), vehicle: olive oil, sesame oil, peanut oil 118 % of control | dose: 200.0 mg/kg/injection, schedule: Q04DX002 (sc), vehicle: olive oil, sesame oil, peanut oil 115 % of control | dose: 400.0 mg/kg/injection, schedule: Q04DX002 (sc), vehicle: olive oil, sesame oil, peanut oil 101 % of control

CN(C)CCOC(=O)C1C2CC3OC(=O)C1C3C2 (configuration not stated)
inactive: [3] 96 % of control | [4] 104 % of control | [5] 104 % of control

O=C(Nc1ccc(C2=NCCN2)cc1)c1ccc2cc(C(=O)Nc3ccc(C4=NCCN4)cc3)ccc2c1
inactive: dose: 15.0 mg/kg/injection, schedule: Q01DX Z (ip), vehicle: carboxymethylcellulose (CMC) 123 % of control | dose: 120.0 mg/kg/injection, schedule: Q01DX Z (ip), vehicle: carboxymethylcellulose (CMC) 120 % of control

NC(=S)N/N=C/c1cc(Br)c(O)c(Br)c1
inactive: [6] 104 % of control | [7] 91 % of control | [8] 98 % of control

Cc1c2ccccc2cc2c1ccc1cccc(F)c12
inactive: dose: 12.5 mg/kg/injection, schedule: Q01DX009 (ip), vehicle: saline with Tween-80 107 % of control | [9] 104 % of control | [10] 96 % of control

Cc1ccc(NC(=S)NC(=O)/C=C/c2ccccc2)cc1Cl
inactive: [9] 94 % of control | [10] 96 % of control and 86 % of control | dose: 100.0 mg/kg/injection, schedule: Q01DX001 (ip), vehicle: saline with Tween-80 87 % of control | dose: 100.0 mg/kg/injection, schedule: Q04DX002 (ip), vehicle: saline with Tween-80 97 % of control | dose: 200.0 mg/kg/injection, schedule: Q01DX001 (ip), vehicle: saline with Tween-80 87 % of control | dose: 200.0 mg/kg/injection, schedule: Q04DX002 (ip), vehicle: saline with Tween-80 87 % of control and 89 % of control | dose: 400.0 mg/kg/injection, schedule: Q04DX002 (ip), vehicle: saline with Tween-80 87 % of control and 89 % of control

CC(=O)Nc1cc(Cl)ccc1Cl
inactive: dose: 100.0 mg/kg/injection, schedule: Q04DX003 (ip), vehicle: Klucel (hydroxypropylcellulose) (HPC) 102 % of control | dose: 200.0 mg/kg/injection, schedule: Q04DX003 (ip), vehicle: Klucel (hydroxypropylcellulose) (HPC) 88 % of control | dose: 400.0 mg/kg/injection, schedule: Q04DX003 (ip), vehicle: Klucel (hydroxypropylcellulose) (HPC) 102 % of control

COc1ccc(-n2cccc2/C=N\O)cc1OC
inactive: [1] 89 % of control | [2] 100 % of control | [11] 96 % of control

CCOC(=O)C(O)(NC(=O)N/N=C/c1ccccc1)C(=O)OCC
inactive: [12] 101 % of control | [13] 106 % of control | [14] 92 % of control | [15] 104 % of control | dose: 400.0 mg/kg/injection, schedule: Q01DX009 (ip), vehicle: saline with Tween-80 93 % of control | [16] 101 % of control

C[N+](C)(CC(=O)Nc1ccc(Cl)c(C(F)(F)F)c1)Cc1ccc(Cl)cc1
inactive: [13] 100 % of control

CC12CCC3c4cc(N)c(O)cc4CCC3C1CCC2=O (configuration not stated)
inactive: [1] 92 % of control | [2] 99 % of control | [11] 101 % of control

CCC(=O)C(CCN(C)C)(c1ccccc1)c1ccccn1 (configuration not stated)
inactive: dose: 44.0 mg/kg/injection, schedule: Q01DX Z (ip), vehicle: saline 98 % of control | dose: 66.0 mg/kg/injection, schedule: Q01DX Z (ip), vehicle: saline 104 % of control

Nc1nc(N)c(N=O)c(=O)[nH]1
inactive: [17] 105 % of control | [6] 99 % of control | [18] 95 % of control | [7] 100 % of control | [19] 94 % of control | [8] 97 % of control

CC(C)CC(NC(=O)c1ccccc1)C(N)=O (configuration not stated)
inactive: [12] 90 % of control | [14] 90 % of control

Cc1cc(C)c(N(CC(=O)O)S(=O)(=O)c2ccccc2)c(C)c1F
inactive: dose: 100.0 mg/kg/injection, schedule: Q01DX001 (ip), vehicle: Klucel (hydroxypropylcellulose) (HPC) 100 % of control | dose: 200.0 mg/kg/injection, schedule: Q01DX001 (ip), vehicle: Klucel (hydroxypropylcellulose) (HPC) 94 % of control | dose: 400.0 mg/kg/injection, schedule: Q01DX001 (ip), vehicle: Klucel (hydroxypropylcellulose) (HPC) 89 % of control

O=C(O)c1ccc(F)c(F)c1F
inactive: dose: 100.0 mg/kg/injection, schedule: Q04DX002 (ip), vehicle: other 121 % of control | dose: 200.0 mg/kg/injection, schedule: Q04DX002 (ip), vehicle: other 115 % of control

COc1ccc(CC(=O)N(CCNS(=O)(=O)c2ccc(C)cc2)CCOC(C)=O)cc1
inactive: dose: 100.0 mg/kg/injection, schedule: Q01DX001 (ip), vehicle: water 104 % of control | dose: 200.0 mg/kg/injection, schedule: Q01DX001 (ip), vehicle: water 107 % of control | dose: 400.0 mg/kg/injection, schedule: Q01DX001 (ip), vehicle: water 96 % of control

CCOP(=O)(OCC)O/N=C(/C#N)c1ccccc1
inactive: dose: 75.0 mg/kg/injection, schedule: Q01DX001 (ip), vehicle: saline 91 % of control

COC(=O)C1CC[N-]CC1.COC(=O)C1CC[N-]CC1.[Cl][Pt+2][Cl]
inactive: [13] 106 % of control | [15] 106 % of control | [16] 106 % of control

O=C1Cc2cccc3cccc1c23
inactive: [13] 102 % of control | [15] 106 % of control | [16] 104 % of control

CC(=O)CC(C)=Nc1cccc(N=C(C)CC(C)=O)c1
inactive: dose: 87.5 mg/kg/injection, schedule: Q04DX003 (ip), vehicle: saline with Tween-80 93 % of control | dose: 175.0 mg/kg/injection, schedule: Q04DX003 (ip), vehicle: saline with Tween-80 93 % of control | dose: 350.0 mg/kg/injection, schedule: Q04DX003 (ip), vehicle: saline with Tween-80 93 % of control

CN1CCCCC1CCC1c2ccccc2CCc2ccccc21 (configuration not stated)
inactive: dose: 1.56 mg/kg/injection, schedule: Q01DX009 (ip), vehicle: saline 104 % of control | dose: 3.12 mg/kg/injection, schedule: Q01DX009 (ip), vehicle: saline 104 % of control | dose: 6.25 mg/kg/injection, schedule: Q01DX009 (ip), vehicle: saline 98 % of control and 99 % of control | dose: 12.5 mg/kg/injection, schedule: Q01DX009 (ip), vehicle: saline 94 % of control and 103 % of control | dose: 25.0 mg/kg/injection, schedule: Q01DX009 (ip), vehicle: saline 107 % of control and 116 % of control

O=C1NC(Cc2ccccc2)C(=O)O1 (configuration not stated)
inactive: [3] 100 % of control | [4] 91 % of control | [5] 93 % of control

CC1=CC(=O)OC1=O (tested in a mixture with another compound)
inactive: dose: 37.5 mg/kg/injection, schedule: Q01DX009 (ip), vehicle: carboxymethylcellulose (CMC) 117 % of control | dose: 75.0 mg/kg/injection, schedule: Q01DX001 (ip), vehicle: carboxymethylcellulose (CMC) 109 % of control | dose: 150.0 mg/kg/injection, schedule: Q01DX001 (ip), vehicle: carboxymethylcellulose (CMC) 118 % of control

O=C(NC(c1ccccc1)C(Cl)(Cl)Cl)c1ccccc1 (configuration not stated)
inactive: dose: 50.0 mg/kg/injection, schedule: Q01DX009 (ip), vehicle: Klucel (hydroxypropylcellulose) (HPC) 97 % of control | [6] 97 % of control | [7] 97 % of control

O=c1[nH][nH]c(=O)c2cc3ccccc3cc12
inactive: dose: 62.5 mg/kg/injection, schedule: Q01DX009 (ip), vehicle: Klucel (hydroxypropylcellulose) (HPC) 98 % of control | dose: 125.0 mg/kg/injection, schedule: Q01DX009 (ip), vehicle: Klucel (hydroxypropylcellulose) (HPC) 105 % of control

COc1cc(C=O)ccc1OCCCOc1ccc(C=O)cc1OC
inactive: [10] 104 % of control | [12] 93 % of control | [14] 101 % of control

CC(=O)c1cc([N+](=O)[O-])ccc1O
inactive: [17] 90 % of control | [18] 97 % of control | [19] 90 % of control

From PubChem BioAssay AID248 (DTP/NCI, 2004)
